Patent publication US10597388B2, “Pyridazinone herbicides” (FMC CORPORATION, priority 2014, dated 2020)

Legend:
Assay in all cases: Test C greenhouse herbicide test, pre- and postemergence
Type in all cases: in vivo
[1] = system: foxtail, giant (giant foxtail, Setaria faberii)
Outline: (§1)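 Visual 0–100 injury score (100 = complete control) taken against untreated controls after 13–15 d in greenhouse. Test chemicals, formulated in solvent plus surfactant, applied preemergence to seeds in loam–sand soil or postemergence to 1- to 4-leaf plants (2–18 cm).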

[2] = system: johnsongrass (Sorghum halepense)
Outline: as §1

[3] = system: pigweed (Amaranthus retroflexus)
Outline: as §1

[4] = system: wheat (winter wheat, Triticum aestivum)
Outline: as §1

[5] = system: blackgrass (Alopecurus myosuroides)
Outline: as §1

soybean (Glycine max) = system: soybean (Glycine max)
Outline: as §1

[6] = system: morningglory (Ipomoea coccinea)
Outline: as §1

[7] = system: nutsedge, yellow (yellow nutsedge, Cyperus esculentus)
Outline: as §1

corn (Zea mays) = system: corn (Zea mays)
Outline: as §1

[8] = system: lambsquarters (Chenopodium album)
Outline: as §1

[9] = system: galium (catchweed bedstraw, Galium aparine)
Outline: as §1

[10] = system: barnyardgrass (Echinochloa crus-galli)
Outline: as §1

[11] = system: ragweed (common ragweed, Ambrosia elatior)
Outline: as §1

[12] = system: ryegrass, Italian (Italian ryegrass, Lolium multiflorum)
Outline: as §1

[13] = system: waterhemp (common waterhemp, Amaranthus rudis)
Outline: as §1

[14] = system: velvetleaf (Abutilon theophrasti)
Outline: as §1

[15] = Postemergence, 31 g ai/ha, scale 0 to 100 (0 no effect, 100 complete control)
[16] = Postemergence, 62 g ai/ha, 0 to 100 scale (0 no effect, 100 complete control)
[17] = Postemergence, 250 g ai/ha, scale 0 to 100, 0 no effect, 100 complete control, 13 to 15 d
[18] = Preemergence, 31 g ai/ha, scale 0 to 100, 0 is no effect, 100 is complete control
[19] = Preemergence, 62 g ai/ha, scale 0 to 100, 0 is no effect, 100 is complete control
[20] = Preemergence, 125 g ai/ha, scale 0 to 100, 0 is no effect, 100 is complete control
[21] = Preemergence, 250 g ai/ha, scale 0 to 100 (0 no effect, 100 complete control)
[22] = postemergence, 125 g ai/ha, scale 0 to 100, 0 no effect, 100 complete control
[23] = Postemergence, 125 g ai/ha, scale 0 to 100, 0 is no effect, 100 is complete control
[24] = Postemergence, 16 g ai/ha, scale 0 to 100 (0 no effect, 100 complete control)

COc1nn(C)c(=O)c(-c2c(C)ccc3ccccc23)c1OC(C)=O [Compound 138]
75: Nutsedge, Yellow plant response rating [7, 22]
45: Plant response rating, Blackgrass [5, 18] | Plant response rating, Nutsedge, Yellow [7, 15]
55: Plant response rating, Blackgrass [5, 19] | Plant response rating, Barnyardgrass [10, 19] | Plant response rating, Ryegrass, Italian [12, 18]
98: Plant response rating, Pigweed [3, 17] | Plant response rating, Pigweed [3, 19] | Plant response rating, Morningglory [6, 15] | Plant response rating, Morningglory [6, 20] | Morningglory plant response rating [6, 21] | Morningglory plant response rating [6, 22] | Plant response rating, Lambsquarters [8, 17] | Plant response rating, Galium [9, 19] | Plant response rating, Galium [9, 20] | Galium plant response rating [9, 21] | Barnyardgrass plant response rating [10, 21] | Plant response rating, Ragweed [11, 20] | Plant response rating, Waterhemp [13, 20] | Waterhemp plant response rating [13, 22] | Plant response rating, Velvetleaf [14, 17] | Plant response rating, Velvetleaf [14, 20]
100: Plant response rating, Foxtail, Giant [1, 20] | Foxtail, Giant plant response rating [1, 21] | Plant response rating, Pigweed [3, 18] | Plant response rating, Pigweed [3, 20] | Pigweed plant response rating [3, 21] | Morningglory plant response rating [6, 16] | Plant response rating, Morningglory [6, 17] | Plant response rating, Lambsquarters [8, 20] | Lambsquarters plant response rating [8, 21] | Plant response rating, Ragweed [11, 19] | Plant response rating, Waterhemp [13, 17] | Plant response rating, Waterhemp [13, 19] | Waterhemp plant response rating [13, 21] | Velvetleaf plant response rating [14, 21]
65: Foxtail, Giant plant response rating [1, 22] | Nutsedge, Yellow plant response rating [7, 16]
50: Blackgrass plant response rating [5, 22]
95: Plant response rating, Nutsedge, Yellow [7, 20] | Plant response rating, Lambsquarters [8, 18] | Plant response rating, Lambsquarters [8, 19] | Lambsquarters plant response rating [8, 22] | Plant response rating, Galium [9, 17] | Plant response rating, Galium [9, 18] | Galium plant response rating [9, 22] | Plant response rating, Ragweed [11, 18] | Ragweed plant response rating [11, 21] | Ryegrass, Italian plant response rating [12, 21] | Waterhemp plant response rating [13, 16] | Plant response rating, Waterhemp [13, 18] | Velvetleaf plant response rating [14, 22]
70: Plant response rating, Ryegrass, Italian [12, 17]
15: Plant response rating, Johnsongrass [2, 19] | Soybean plant response rating (soybean (Glycine max); [21]) | Plant response rating, Corn (corn (Zea mays); [17]) | Corn plant response rating (corn (Zea mays); [21]) | Corn plant response rating (corn (Zea mays); [22])
25: Plant response rating, Soybean (soybean (Glycine max); [17]) | Plant response rating, Barnyardgrass [10, 15] | Barnyardgrass plant response rating [10, 16]
90: Pigweed plant response rating [3, 22] | Plant response rating, Wheat [4, 17] | Blackgrass plant response rating [5, 21] | Plant response rating, Morningglory [6, 19] | Nutsedge, Yellow plant response rating [7, 21] | Plant response rating, Lambsquarters [8, 15] | Lambsquarters plant response rating [8, 16] | Plant response rating, Galium [9, 15] | Galium plant response rating [9, 16] | Plant response rating, Barnyardgrass [10, 20] | Plant response rating, Ryegrass, Italian [12, 19] | Plant response rating, Ryegrass, Italian [12, 20] | Plant response rating, Waterhemp [13, 15] | Velvetleaf plant response rating [14, 16] | Plant response rating, Velvetleaf [14, 19]
30: Plant response rating, Johnsongrass [2, 20] | Plant response rating, Barnyardgrass [10, 23] | Plant response rating, Barnyardgrass [10, 18]
5: Plant response rating, Wheat [4, 20] | Wheat plant response rating [4, 21] | Plant response rating, Blackgrass [5, 15] | Blackgrass plant response rating [5, 16] | Plant response rating, Nutsedge, Yellow [7, 18] | Plant response rating, Corn (corn (Zea mays); [18]) | Plant response rating, Corn (corn (Zea mays); [19]) | Plant response rating, Corn (corn (Zea mays); [20]) | Plant response rating, Ragweed [11, 17] | Ragweed plant response rating [11, 22] | Plant response rating, Ryegrass, Italian [12, 15] | Ryegrass, Italian plant response rating [12, 16]
35: Plant response rating, Foxtail, Giant [1, 15] | Plant response rating, Wheat [4, 19]
80: Plant response rating, Foxtail, Giant [1, 17] | Plant response rating, Foxtail, Giant [1, 18] | Plant response rating, Pigweed [3, 15] | Wheat plant response rating [4, 22] | Plant response rating, Blackgrass [5, 17] | Plant response rating, Morningglory [6, 18] | Plant response rating, Nutsedge, Yellow [7, 17]
0: Plant response rating, Wheat [4, 18] | Plant response rating, Soybean (soybean (Glycine max); [18]) | Plant response rating, Soybean (soybean (Glycine max); [19]) | Plant response rating, Corn (corn (Zea mays); [15]) | Corn plant response rating (corn (Zea mays); [16]) | Plant response rating, Ragweed [11, 15] | Ragweed plant response rating [11, 16]
85: Plant response rating, Foxtail, Giant [1, 19] | Pigweed plant response rating [3, 16] | Plant response rating, Velvetleaf [14, 15] | Plant response rating, Velvetleaf [14, 18]
60: Foxtail, Giant plant response rating [1, 16] | Plant response rating, Wheat [4, 15] | Plant response rating, Nutsedge, Yellow [7, 19]
10: Plant response rating, Johnsongrass [2, 15] | Johnsongrass plant response rating [2, 16] | Plant response rating, Johnsongrass [2, 18] | Plant response rating, Soybean (soybean (Glycine max); [15]) | Soybean plant response rating (soybean (Glycine max); [16]) | Soybean plant response rating (soybean (Glycine max); [22]) | Ryegrass, Italian plant response rating [12, 22]
20: Plant response rating, Johnsongrass [2, 17] | Johnsongrass plant response rating [2, 21] | Johnsongrass plant response rating [2, 22] | Plant response rating, Soybean (soybean (Glycine max); [20])
40: Wheat plant response rating [4, 16] | Plant response rating, Blackgrass [5, 20] | Plant response rating, Barnyardgrass [10, 17]

COC(=O)Oc1cnn(C)c(=O)c1-c1c(C)ccc2ccccc12 [Compound 143]
70: Morningglory plant response rating [6, 22] | Ragweed plant response rating [11, 22]
90: Galium plant response rating [9, 16] | Galium plant response rating [9, 22] | Ryegrass, Italian plant response rating [12, 22] | Waterhemp plant response rating [13, 22]
10: Plant response rating, Johnsongrass [2, 24] | Plant response rating, Johnsongrass [2, 15] | Plant response rating, Nutsedge, Yellow [7, 24] | Plant response rating, Nutsedge, Yellow [7, 15] | Plant response rating, Lambsquarters [8, 24]
40: Nutsedge, Yellow plant response rating [7, 16] | Plant response rating, Waterhemp [13, 15]
5: Plant response rating, Foxtail, Giant [1, 24] | Plant response rating, Foxtail, Giant [1, 15] | Foxtail, Giant plant response rating [1, 16] | Plant response rating, Wheat [4, 15] | Plant response rating, Blackgrass [5, 15] | Blackgrass plant response rating [5, 16] | Plant response rating, Corn (corn (Zea mays); [15]) | Corn plant response rating (corn (Zea mays); [22])
0: Plant response rating, Wheat [4, 24] | Plant response rating, Blackgrass [5, 24] | Plant response rating, Soybean (soybean (Glycine max); [24]) | Plant response rating, Soybean (soybean (Glycine max); [15]) | Plant response rating, Corn (corn (Zea mays); [24]) | Corn plant response rating (corn (Zea mays); [16]) | Plant response rating, Ragweed [11, 24] | Plant response rating, Ragweed [11, 15]
35: Wheat plant response rating [4, 16] | Nutsedge, Yellow plant response rating [7, 22]
30: Plant response rating, Morningglory [6, 24] | Plant response rating, Barnyardgrass [10, 23] | Ragweed plant response rating [11, 16] | Plant response rating, Velvetleaf [14, 24]
25: Johnsongrass plant response rating [2, 16] | Barnyardgrass plant response rating [10, 16] | Plant response rating, Waterhemp [13, 24] | Velvetleaf plant response rating [14, 16]
20: Foxtail, Giant plant response rating [1, 22] | Johnsongrass plant response rating [2, 22] | Blackgrass plant response rating [5, 22] | Soybean plant response rating (soybean (Glycine max); [22]) | Plant response rating, Barnyardgrass [10, 15] | Plant response rating, Velvetleaf [14, 15]
60: Lambsquarters plant response rating [8, 16] | Plant response rating, Galium [9, 24] | Ryegrass, Italian plant response rating [12, 16]
75: Pigweed plant response rating [3, 22] | Lambsquarters plant response rating [8, 22]
65: Pigweed plant response rating [3, 16] | Morningglory plant response rating [6, 16] | Plant response rating, Galium [9, 15]
55: Plant response rating, Ryegrass, Italian [12, 15] | Waterhemp plant response rating [13, 16]
15: Wheat plant response rating [4, 22] | Soybean plant response rating (soybean (Glycine max); [16]) | Plant response rating, Barnyardgrass [10, 24]
50: Plant response rating, Pigweed [3, 24] | Plant response rating, Pigweed [3, 15] | Plant response rating, Morningglory [6, 15] | Plant response rating, Lambsquarters [8, 15] | Velvetleaf plant response rating [14, 22]
45: Plant response rating, Ryegrass, Italian [12, 24]
